# From PMC6648837 (ACS Omega, 2019)
# pIC50: −log10 of the molar value. Like-named read-outs stand apart in the source and are kept apart here.
# How the values were obtained:
# CYP3A4 = CYP3A4 (Homo sapiens, UniProt P08684); assay: CYP3A4 inhibition assay; type: biochemical; details: for CYP3A4 inhibition compared in words: versus dillapiol (14, 15: versus 13); for increased CYP3A4 inhibition relative to the methyl ester 4a (factor): esters of primary alcohol 2; for times more potent than dillapiol as CYP3A4 inhibitor: dillapiol = 1
# CYP3A4, sequence (P08684 whole entry): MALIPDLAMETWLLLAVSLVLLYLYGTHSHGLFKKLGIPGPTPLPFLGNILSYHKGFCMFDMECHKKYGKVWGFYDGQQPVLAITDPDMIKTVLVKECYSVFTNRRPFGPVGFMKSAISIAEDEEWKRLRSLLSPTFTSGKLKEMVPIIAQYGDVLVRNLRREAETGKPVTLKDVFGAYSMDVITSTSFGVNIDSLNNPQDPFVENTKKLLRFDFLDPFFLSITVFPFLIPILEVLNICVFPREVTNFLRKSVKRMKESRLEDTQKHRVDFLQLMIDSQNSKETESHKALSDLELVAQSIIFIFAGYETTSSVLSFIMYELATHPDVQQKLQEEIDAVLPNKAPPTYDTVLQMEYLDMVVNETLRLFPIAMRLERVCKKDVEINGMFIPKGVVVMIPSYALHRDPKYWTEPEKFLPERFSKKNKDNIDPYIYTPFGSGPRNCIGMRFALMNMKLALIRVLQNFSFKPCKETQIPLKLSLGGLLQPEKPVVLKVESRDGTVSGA
# Colorado potato beetle = details: in vivo bioassays; cited from earlier work
smiles,measurement,setting,value
COc1c(CC(C)O)cc2c(c1OC)OCO2 (centres unmarked) [Compound 3],CYP3A4 inhibition compared in words,CYP3A4,less potent than dillapiol
COc1c(CCCOC(C)=O)cc2c(c1OC)OCO2 [Compound 4a],CYP3A4 inhibition compared in words,CYP3A4,essentially the same inhibitory effect as dillapiol
same,insecticide synergism of pyrethrum,Colorado potato beetle,no insecticide synergism
CCCCCC(=O)OCCCc1cc2c(c(OC)c1OC)OCO2 [Compound 4d],increased CYP3A4 inhibition relative to the methyl ester 4a (factor),CYP3A4,2.8
same,pIC50,"CYP3A4; human, recombinant CYP3A4 (BD Gentest), probe dibenzyl fluorescein (DBF)",5.48
COc1c(CCCOC(=O)c2ccccc2)cc2c(c1OC)OCO2 [Compound 4g],insecticide synergism of pyrethrum,Colorado potato beetle,no insecticide synergism
COc1c(CCCOC(=O)c2ccccc2Cl)cc2c(c1OC)OCO2 [Compound 4h],pIC50,CYP3A4,5.89
COc1c(CCCOC(=O)c2ccc(Cl)cc2)cc2c(c1OC)OCO2 [Compound 4i],pIC50,CYP3A4,5.80
same,increased CYP3A4 inhibition relative to the methyl ester 4a (factor),CYP3A4,greater than 6
COc1c(CCCOC(=O)c2ccc(Cl)cc2Cl)cc2c(c1OC)OCO2 [Compound 4j],increased CYP3A4 inhibition relative to the methyl ester 4a (factor),CYP3A4,greater than 6
COc1c(CCCOC(=O)C=Cc2ccccc2)cc2c(c1OC)OCO2 [Compound 4l],pIC50,CYP3A4,5.62
COc1c(CCCOC(=O)C(c2ccccc2)c2ccccc2)cc2c(c1OC)OCO2 [Compound 4n],"increased CYP3A4 inhibition by a factor, benzhydryl versus benzyl group (4m)",CYP3A4,5
COc1c(CC(C)OC(C)=O)cc2c(c1OC)OCO2 (centres unmarked) [Compound 5a],pIC50,CYP3A4,< 4.70
COc1c(CC(C)OC(=O)c2ccccc2)cc2c(c1OC)OCO2 (centres unmarked) [Compound 5g],pIC50,CYP3A4,5.46
C=CCc1cc2c(cc1OC)OCO2 [Compound 8b],insecticide synergism of pyrethrum,Colorado potato beetle,increased in vivo synergism relative to dillapiol
C=CCc1cc2c(cc1OCc1ccccc1Cl)OCO2 [Compound 8f],times more potent than dillapiol as CYP3A4 inhibitor,CYP3A4,86 times
C=CCc1cc2c(cc1OCc1ccccc1OC)OCO2 [Compound 8g],times more potent than dillapiol as CYP3A4 inhibitor,CYP3A4,0.9 times
COc1cc2c(cc1CCCOC(=O)C=Cc1ccccc1)OCO2 [Compound 11d],pIC50,CYP3A4,4.76
O=C(C=Cc1ccccc1)OCCCc1cc2c(cc1OCc1ccccc1)OCO2 [Compound 11e],pIC50,CYP3A4,5.33
O=C(OCCCc1cc2c(cc1OCc1ccccc1)OCO2)C(c1ccccc1)c1ccccc1 [Compound 11g],pIC50,CYP3A4,6.00
